For 19 compounds, IC50 results are on record in patent US12202835B2, “Substituted aromatic ring-linked dioxinoquinazolines and dioxinoquinolines as kinase inhibitors” (BEIJING SCITECH-MQ PHARMACEUTICALS LIMITED, priority 2018, dated 2025).

Some results are limits rather than exact numbers.

Holding throughout (assay type): cell-based
Test [1] relates to Ba/F3 LMNA-NTRK1-G595R cells. Description: Assay for inhibiting the proliferation of Ba/F3 LMNA-NTRK1-G595R cells (CCK-8). Particulars: Mus musculus, BaF3. The procedure: In particular, the method of the assay of small molecular compounds for inhibiting cell proliferation is as follows: • 1. Cells cultured to a logarithmic growth phase (adherent cells need to be digested with trypsin and neutralized) were taken, pipetted evenly, transferred to a 15 mL centrifuge tube, and centrifuged at 1000 rpm at room temperature for 4 minutes; • 2. The supernatant was discarded; 5 mL of complete medium was added and pipetted evenly; 10 μL of cell suspension was taken out, mixed well with 10 μL of 0.4% trypan blue, and counted under a cell counter; the proportion of living cells was ensured to be above 90%; • 3. 80 μL of cell suspension per well was seeded into a 96-well plate according to the conditions shown in the attached table, and cultured overnight; in the outer 36 wells of the 96-well plate, no cells were added but only sterile water was added; only the inner 60 wells were used for cell assay and control; • 4. 5×compound dilution: the compounds were serially diluted 3-fold to obtain a total of 9 concentrations; 80-fold overall dilution was completed with complete medium, the resulting concentration was 5 times the final drug concentration, and DMSO concentration was 1.25%; • 5. 20 μL of the corresponding compounds with different concentration gradients were added to each well of assay wells of the 96-well plate; 20 μL of complete medium was added to positive and negative control wells and shaken well; and the final concentration of DMSO in each well was 0.25%; • 6. After 72 hours of incubation, 10 μL of CCK-8 reagent was added to each well and further incubated at 37° C. for 1-2 hours; and the OD value was read at 450 nm; • 7. Cell survival rate (%)=[(As−Ab)/(Ac−Ab)]*100% • As: Assay well (medium containing cells, CCK-8, compound), • Ac: Control well (medium containing cells, CCK-8), • Ab: Blank well (CCK-8, medium without cell and compound), • 8. The values were imported into Graphpad Prism 5 software for IC50 calculation.

The next test deals with MHCC97H cells. Description: Assay for inhibiting the proliferation of MHCC97H cells (CCK-8). The conditions noted are these: Homo sapiens. The method, boiled down:
(§1)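 Cells seeded in 96-well plates overnight, then exposed 72 h to 9 three-fold dilutions of compound (0.25% DMSO final). Viability by CCK-8 (1-2 h at 37° C., OD 450 nm), survival normalized to untreated and cell-free blanks; IC50 by curve fitting.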

A further test has as its system EBC1 cells. Description: Assay for inhibiting the proliferation of EBC1 cells (CCK-8). The conditions noted are these: Homo sapiens, EBC-1. The procedure, abridged:
as §1

For `CC(C)n1cc(C(=O)Nc2ccc(Oc3ccnc4cc(OCCCN5CCOCC5)c5c(c34)OCCO5)c(F)c2)c(=O)n(-c2ccc(F)cc2)c1=O` [Example 16, N-(3-fluoro-4-((5-(3-morpholinopropoxy)-2,3-dihydro-[1,4]dioxino[2,3-f]quinolin-10-yl)oxy)phenyl)-3-(4-fluorophenyl)-1-isopropyl-2,4-dioxo-1,2,3,4-tetrahydropyrimidine-5-carboxamide], the IC50 (commonly the concentration that gives 50% inhibition) in test [1] lay in the range of 200 to 1000 nM. Still for that read-out and setting: then `COc1cc2ncnc(Oc3ccc(NC(=O)c4cn(C)c(=O)n(-c5ccc(F)cc5)c4=O)cc3F)c2c2c1OCCO2` [Example 29, N-(3-fluoro-4-((5-methoxy-2,3-dihydro-[1,4]dioxino[2,3-f]quinazolin-10-yl)oxy)phenyl)-3-(4-fluorophenyl)-1-methyl-2,4-dioxo-1,2,3,4-tetrahydropyrimidine-5-carboxamide], with 200 to 1000 nM. Same read-out and setting: the same measure for `Cn1cc(C(=O)Nc2ccc(Oc3ncnc4cc(OCCCN5CCOCC5)c5c(c34)OCCO5)c(F)c2)c(=O)n(-c2ccc(F)cc2)c1=O` [Example 30, N-(3-fluoro-4-((5-(3-morpholinopropoxy)-2,3-dihydro-[1,4]dioxino[2,3-f]quinazolin-10-yl)oxy)phenyl)-3-(4-fluorophenyl)-1-methyl-2,4-dioxo-1,2,3,4-tetrahydropyrimidine-5-carboxamide]: 200 to 1000 nM; for `CCn1cc(C(=O)Nc2ccc(Oc3ccnc4cc(OC)c5c(c34)OCCO5)c(F)c2)c(=O)n(-c2ccc(F)cc2)c1=O` [Example 37, N-(3-fluoro-4-((5-methoxy-2,3-dihydro-[1,4]dioxino[2,3-f]quinolin-10-yl)oxy)phenyl)-3-(4-fluorophenyl)-1-ethyl-2,4-dioxo-1,2,3,4-tetrahydropyrimidine-5-carboxamide]: 50 to 200 nM.

Turning to `CCn1cc(C(=O)Nc2ccc(Oc3ccnc4cc(OCCCN5CCOCC5)c5c(c34)OCCO5)c(F)c2)c(=O)n(-c2ccc(F)cc2)c1=O` [Example 38, N-(3-fluoro-4-((5-(3-morpholinopropoxy)-2,3-dihydro-[1,4]dioxino[2,3-f]quinolin-10-yl)oxy)phenyl)-3-(4-fluorophenyl)-1-ethyl-2,4-dioxo-1,2,3,4-tetrahydropyrimidine-5-carboxamide], in test [1], the half-maximal inhibitory concentration (IC50) fell in the range of 200 to 1000 nM. The same measure, in the same setting: then `CC(C)n1cc(C(=O)Nc2ccc(Oc3ccnc4cc(OCCCN(C)C5CCC5)c5c(c34)OCCO5)c(F)c2)c(=O)n(-c2ccc(F)cc2)c1=O` [Example 96, N-(3-fluoro-4-((5-(3-((cyclobutyl)(methyl)amino)propoxy)-2,3-dihydro-[1,4]dioxino[2,3-f]quinolin-10-yl)oxy)phenyl)-3-(4-fluorophenyl)-1-isopropyl-2,4-dioxo-1,2,3,4-tetrahydropyrimidine-5-carboxamide], with 200 to 1000 nM; and `CC(C)n1cc(C(=O)Nc2ccc(Oc3ccnc4cc(OCCCN5CCOCC5)c5c(c34)OCCO5)c(Cl)c2)c(=O)n(-c2ccc(F)cc2)c1=O` [Example 97, N-(3-chloro-4-((5-(3-morpholinopropoxy)-2,3-dihydro-[1,4]dioxino[2,3-f]quinolin-10-yl)oxy)phenyl)-3-(4-fluorophenyl)-1-isopropyl-2,4-dioxo-1,2,3,4-tetrahydropyrimidine-5-carboxamide], with 50 to 200 nM; and `Cn1cc(C(=O)Nc2ccc(Oc3ccnc4cc(OCCCN5CCOCC5)c5c(c34)OCCO5)cc2Cl)c(=O)n(-c2ccc(F)cc2)c1=O` [Example 98, N-(2-chloro-4-((5-(3-morpholinopropoxy)-2,3-dihydro-[1,4]dioxino[2,3-f]quinolin-10-yl)oxy)phenyl)-3-(4-fluorophenyl)-1-methyl-2,4-dioxo-1,2,3,4-tetrahydropyrimidine-5-carboxamide], with 50 to 200 nM.

`CCOc1ccn(-c2ccc(F)cc2)c(=O)c1C(=O)Nc1ccc(Oc2ccnc3cc(OCC4(N)CC4)c4c(c23)OCCO4)c(F)c1` [Example 105, N-(4-((5-((1-aminocyclopropyl)methoxy)-2,3-dihydro-[1,4]dioxino[2,3-f]quinolin-10-yl)oxy)-3-fluorophenyl)-4-ethoxy-1-(4-fluorophenyl)-2-oxo-1,2-dihydropyridine-3-carboxamide]: the IC50 in the test with MHCC97H cells is 50 to 200 nM; in the test on EBC1 cells, ≤ 50 nM. The corresponding values for `CC(C)n1cc(C(=O)Nc2ccc(Oc3ccnc4cc(OCC5(N)CC5)c5c(c34)OCCO5)c(F)c2)c(=O)n(-c2ccc(F)cc2)c1=O` [Example 106, N-(3-fluoro-4-((5-((1-aminocyclopropyl)methoxy)-2,3-dihydro-[1,4]dioxino[2,3-f]quinolin-1 0-yl)oxy)phenyl)-3-(4-fluorophenyl)-1-isopropyl-2,4-dioxo-1,2,3,4-tetrahydropyrimidine-5-carboxamide] are 50 to 200 nM and ≤ 50 nM. Taken in the same sequence, the figures for `CCOc1ccn(-c2ccc(C)cc2)c(=O)c1C(=O)Nc1ccc(Oc2ccnc3cc(OC)c4c(c23)OCCO4)c(F)c1` [Example 112, N-(3-fluoro-4-((5-methoxy-2,3-dihydro-[1,4]dioxino[2,3-f]quinolin-10-yl)oxy)phenyl)-2-oxo-4-ethoxy-1-(4-methylphenyl)-1,2-dihydropyridin-3-carboxamide] were 200 to 1000 nM and 50 to 200 nM. Taken in the same sequence, the figures for `CCOc1ccn(-c2ccc(Cl)cc2)c(=O)c1C(=O)Nc1ccc(Oc2ccnc3cc(OC)c4c(c23)OCCO4)c(F)c1` [Example 113, N-(3-fluoro-4-((5-methoxy-2,3-dihydro-[1,4]dioxino[2,3-f]quinolin-10-yl)oxy)phenyl)-2-oxo-4-ethoxy-1-(4-chlorophenyl)-1,2-dihydropyridin-3-carboxamide] were 50 to 200 nM and 50 to 200 nM. Take `CCOc1ccn(-c2cccc(F)c2)c(=O)c1C(=O)Nc1ccc(Oc2ccnc3cc(OC)c4c(c23)OCCO4)c(F)c1` [Example 114, N-(3-fluoro-4-((5-methoxy-2,3-dihydro-[1,4]dioxino[2,3-f]quinolin-10-yl)oxy)phenyl)-2-oxo-4-ethoxy-1-(3-fluorophenyl)-1,2-dihydropyridin-3-carboxamide]: the 50% inhibitory concentration (IC50) in the test with MHCC97H cells and in the test on EBC1 cells was 50 to 200 nM each time. On to `CCOc1ccn(-c2ccc(F)cc2)c(=O)c1C(=O)Nc1cc(F)c(Oc2ccnc3cc(OC)c4c(c23)OCCO4)cc1Cl` [Example 115, N-(2-chloro-5-fluoro-4-((5-methoxy-2,3-dihydro-[1,4]dioxino[2,3-f]quinolin-10-yl)oxy)phenyl)-4-ethoxy-2-oxo-1-(4-fluorophenyl)-1,2-dihydropyridin-3-carboxamide], for which the IC50 with MHCC97H cells and with EBC1 cells was ≤ 50 nM each time.

For the compound `CC(C)n1cc(C(=O)Nc2ccc(Oc3ccnc4cc(OCC(C)(C)O)c5c(c34)OCCO5)c(F)c2)c(=O)n(-c2ccc(F)cc2)c1=O` [Example 122, N-(3-fluoro-4-((5-(2-hydroxy-2-methylpropoxy)-2,3-dihydro-[1,4]dioxino[2,3-f]quinolin-10-yl)oxy)phenyl)-3-(4-fluorophenyl)-1-isopropyl-2,4-dioxo-1,2,3,4-tetrahydropyrimidine-5-carboxamide], the IC50 in test [1] lay in the range of 200 to 1000 nM. Same read-out and setting: the same measure for `COc1cc2nccc(Oc3ccc(NC(=O)c4cn(C)c(=O)n(-c5ccc(F)cc5)c4=O)c(Cl)c3)c2c2c1OCCO2` [Example 125, N-(2-chloro-4-((5-methoxy-2,3-dihydro-[1,4]dioxino[2,3-f]quinolin-10-yl)oxy)phenyl)-3-(4-fluorophenyl)-1-methyl-2,4-dioxo-1,2,3,4-tetrahydropyrimidine-5-carboxamide]: ≤ 50 nM; for `CCOc1cc2nccc(Oc3ccc(NC(=O)c4cn(C)c(=O)n(-c5ccc(F)cc5)c4=O)c(Cl)c3)c2c2c1OCCO2` [Example 129, N-(2-chloro-4-((5-ethoxy-2,3-dihydro-[1,4]dioxino[2,3-f]quinolin-10-yl)oxy)phenyl)-3-(4-fluorophenyl)-1-methyl-2,4-dioxo-1,2,3,4-tetrahydropyrimidine-5-carboxamide]: ≤ 50 nM; for `Cn1cc(C(=O)Nc2ccc(Oc3ccnc4cc(OCCCN5CCCCC5)c5c(c34)OCCO5)cc2Cl)c(=O)n(-c2ccc(F)cc2)c1=O` [Example 137, N-(2-chloro-4-((5-((3-piperidin-1-yl)propoxy)-2,3-dihydro-[1,4]dioxino[2,3-f]quinolin-10-yl)oxy)phenyl)-3-(4-fluorophenyl)-1-methyl-2,4-dioxo-1,2,3,4-tetrahydropyrimidine-5-carboxamide]: ≤ 50 nM. On the same count and under the same terms, the same measure for `Cn1cc(C(=O)Nc2ccc(Oc3ccnc4cc(OCC(C)(C)O)c5c(c34)OCCO5)cc2Cl)c(=O)n(-c2ccc(F)cc2)c1=O` [Example 141, N-(2-chloro-4-((5-(2-hydroxy-2-methylpropoxy)-2,3-dihydro-[1,4]dioxino[2,3-f]quinolin-10-yl)oxy)phenyl)-3-(4-fluorophenyl)-1-methyl-2,4-dioxo-1,2,3,4-tetrahydropyrimidine-5-carboxamide]: 50 to 200 nM.
